Measured values published in ChEMBL document CHEMBL1201862, “PubChem BioAssay data set” (2004).
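Dose response: 5 concentrations. Exposure: 48 h. Format: 96-well plates. Endpoint: linear interpolation; highest concentration if not reached. GI50: concentration for 50% inhibition of growth.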 Activity calls are given as the source filed them. No stated cut-off is given here; in the data, active = GI50 up to about 1.1 µM and inactive = higher.

Legend:
Assay in all cases: NCI tumour cell line growth inhibition, 48 h
A549 = tested on: A549
CCRF-CEM = tested on: CCRF-CEM
HL-60 = tested on: HL-60
HOP-62 = tested on: HOP-62
K562 = tested on: K562
LOX IMVI = tested on: LOX IMVI
MOLT-4 = tested on: MOLT-4
NCI-H23 = tested on: NCI-H23
NCI-H460 = tested on: NCI-H460
OVCAR-8 = tested on: OVCAR-8
SF-295 = tested on: SF-295
SK-MEL-28 = tested on: SK-MEL-28
SK-MEL-5 = tested on: SK-MEL-5
SN12C = tested on: SN12C
SR = tested on: SR
UACC-62 = tested on: UACC-62
Hs-578T = tested on: Hs-578T
NCI/ADR-RES = tested on: NCI/ADR-RES
T47D = tested on: T47D
BT-549 = tested on: BT-549

| Compound | GI50 (A549) | GI50 (CCRF-CEM) | GI50 (HL-60) | GI50 (HOP-62) | GI50 (K562) | GI50 (LOX IMVI) | GI50 (MOLT-4) | GI50 (NCI-H23) | GI50 (NCI-H460) | GI50 (OVCAR-8) | GI50 (SF-295) | GI50 (SK-MEL-28) | GI50 (SK-MEL-5) | GI50 (SN12C) | GI50 (SR) | GI50 (UACC-62) | GI50 (Hs-578T) | GI50 (NCI/ADR-RES) | GI50 (T47D) | GI50 (BT-549) |
| --- | --- | --- | --- | --- | --- | --- | --- | --- | --- | --- | --- | --- | --- | --- | --- | --- | --- | --- | --- | --- |
| O=C(/C=C/c1ccc(Cl)c(Cl)c1)c1ccc2ccccc2c1 | > 100 µM (inactive) | > 100 µM (inactive) | 32.7 µM (inactive) | > 100 µM (inactive) | > 100 µM (inactive) | > 100 µM (inactive) | 48.9 µM (inactive) | > 100 µM (inactive) | 37.7 µM (inactive) | > 100 µM (inactive) | > 100 µM (inactive) | > 100 µM (inactive) | > 100 µM (inactive) | 19.7 µM (inactive) | 47.9 µM (inactive) | > 100 µM (inactive) | – | – | – | – |
| COCC1OC([P+](c2ccccc2)(c2ccccc2)c2ccccc2)CC(OC)C1OC (stereo unspecified) | – | – | – | – | 34.2 µM (inactive) | – | 58.1 µM (inactive) | 48.6 µM (inactive) | – | 28.8 µM (inactive) | 34.2 µM (inactive) | 68.1 µM (inactive) | 18.2 µM (inactive) | 29.1 µM (inactive) | 17.4 µM (inactive) | 49.5 µM (inactive) | 28.2 µM (inactive) | > 100 µM (inactive) | 20.6 µM (inactive) | – |
| O=C(Cc1ccc(F)cc1)NC1=C(Cl)C(=O)c2ccccc2C1=O | 3.62 µM (inactive) | 1.71 µM (inactive) | 0.0916 µM (active) | 10 µM (inactive) | 1.54 µM (inactive) | 2.95 µM (inactive) | 1.79 µM (inactive) | 1.67 µM (inactive) | 3.47 µM (inactive) | 1.92 µM (inactive) | 3.83 µM (inactive) | 4.05 µM (inactive) | 2.92 µM (inactive) | 3.38 µM (inactive) | 0.481 µM (active) | 2.53 µM (inactive) | – | – | – | – |
| Cc1cc(C)c([O-])c(-[n+]2c(-c3ccccc3)cc(-c3ccccc3)cc2-c2ccccc2)c1 | 12.6 µM (inactive) | 1.73 µM (inactive) | 1.62 µM (inactive) | 10.1 µM (inactive) | 3.21 µM (inactive) | 1.72 µM (inactive) | 2.67 µM (inactive) | 3.53 µM (inactive) | 4.48 µM (inactive) | 4.33 µM (inactive) | 4.98 µM (inactive) | 4.81 µM (inactive) | 1.94 µM (inactive) | 5.09 µM (inactive) | 2.6 µM (inactive) | 3.34 µM (inactive) | – | – | – | – |
| CC1(C)CC(=O)C(=CNc2nc(-c3ccc(Br)cc3)cs2)C(=O)C1 | 51.4 µM (inactive) | – | 27.7 µM (inactive) | 31.3 µM (inactive) | – | 20.9 µM (inactive) | 27.9 µM (inactive) | 25.8 µM (inactive) | 31.1 µM (inactive) | 51.1 µM (inactive) | 39 µM (inactive) | 34 µM (inactive) | 32.6 µM (inactive) | 39.7 µM (inactive) | – | – | – | 37.8 µM (inactive) | 32.9 µM (inactive) | 17.7 µM (inactive) |
| N#C/C(C(=S)Nc1ccccc1)=C(/N)N1CCCC1 | > 100 µM (inactive) | > 100 µM (inactive) | > 100 µM (inactive) | > 100 µM (inactive) | > 100 µM (inactive) | > 100 µM (inactive) | > 100 µM (inactive) | > 100 µM (inactive) | > 100 µM (inactive) | > 100 µM (inactive) | > 100 µM (inactive) | > 100 µM (inactive) | > 100 µM (inactive) | > 100 µM (inactive) | > 100 µM (inactive) | > 100 µM (inactive) | > 100 µM (inactive) | > 100 µM (inactive) | – | – |
| COc1cc2c(cc1C)[n+]([O-])c(C)c(C(=O)C/C(=N/NC(=O)C[N+](C)(C)C)C(=O)Nc1cccc(Cl)c1C)[n+]2[O-] | > 100 µM (inactive) | 49.9 µM (inactive) | > 100 µM (inactive) | > 100 µM (inactive) | > 100 µM (inactive) | > 100 µM (inactive) | > 100 µM (inactive) | > 100 µM (inactive) | > 100 µM (inactive) | > 100 µM (inactive) | > 100 µM (inactive) | > 100 µM (inactive) | > 100 µM (inactive) | > 100 µM (inactive) | > 100 µM (inactive) | > 100 µM (inactive) | – | – | – | – |
| Cc1cc(C)c(-n2c(-c3ccccc3)cs/c2=N\N=C2C=C(C(C)(C)C)C(=O)C(C(C)(C)C)=C2)c(C)c1 | > 100 µM (inactive) | > 100 µM (inactive) | 50.5 µM (inactive) | > 100 µM (inactive) | 55.8 µM (inactive) | 83.8 µM (inactive) | > 100 µM (inactive) | 60.5 µM (inactive) | > 100 µM (inactive) | > 100 µM (inactive) | > 100 µM (inactive) | > 100 µM (inactive) | 94 µM (inactive) | > 100 µM (inactive) | > 100 µM (inactive) | 60.3 µM (inactive) | – | – | – | – |
| O=C(CC(=O)n1nc(-c2ccccc2)c(/N=N/c2ccc([N+](=O)[O-])cc2)c1-c1ccccc1)Nc1ccc(Cl)cc1 | 15.9 µM (inactive) | 15.6 µM (inactive) | 17 µM (inactive) | 14.5 µM (inactive) | 4.19 µM (inactive) | 30.2 µM (inactive) | 24.1 µM (inactive) | 27.2 µM (inactive) | 30.1 µM (inactive) | 35.8 µM (inactive) | 40.6 µM (inactive) | 17.9 µM (inactive) | 3.23 µM (inactive) | 42.1 µM (inactive) | 22.4 µM (inactive) | 2.56 µM (inactive) | – | – | – | – |
| C(=C\c1c2oc(-c3ccccc3)cc(-c3ccccc3)c-2c2ccccc12)/C=C1\c2ccccc2-c2c(-c3ccccc3)cc(-c3ccccc3)[o+]c21.[O-][Cl+3]([O-])([O-])[O-] | > 100 µM (inactive) | > 100 µM (inactive) | > 100 µM (inactive) | > 100 µM (inactive) | > 100 µM (inactive) | > 100 µM (inactive) | > 100 µM (inactive) | > 100 µM (inactive) | > 100 µM (inactive) | > 100 µM (inactive) | > 100 µM (inactive) | > 100 µM (inactive) | > 100 µM (inactive) | > 100 µM (inactive) | > 100 µM (inactive) | > 100 µM (inactive) | – | – | – | – |
| CC1=C2CN(C(=O)OCC(C)C)CCC2C2=C(C(=O)c3ccccc3C2=O)C1C (stereo unspecified) | > 10 µM (inactive) | > 10 µM (inactive) | > 10 µM (inactive) | > 10 µM (inactive) | > 10 µM (inactive) | > 10 µM (inactive) | > 10 µM (inactive) | 6.53 µM (inactive) | – | > 10 µM (inactive) | > 10 µM (inactive) | > 10 µM (inactive) | > 10 µM (inactive) | > 10 µM (inactive) | > 10 µM (inactive) | > 10 µM (inactive) | – | – | > 10 µM (inactive) | – |
| CCOC(=O)/C=C/CC(C)(C)CCOC(C)=O | > 10 µM (inactive) | > 10 µM (inactive) | > 10 µM (inactive) | > 10 µM (inactive) | > 10 µM (inactive) | > 10 µM (inactive) | > 10 µM (inactive) | > 10 µM (inactive) | > 10 µM (inactive) | > 10 µM (inactive) | > 10 µM (inactive) | > 10 µM (inactive) | > 10 µM (inactive) | > 10 µM (inactive) | > 10 µM (inactive) | > 10 µM (inactive) | > 10 µM (inactive) | > 10 µM (inactive) | > 10 µM (inactive) | – |
| O=C(Nc1ccc(Cl)cc1)c1cc2c(cc1Cl)Sc1nccn1S2(=O)=O | > 100 µM (inactive) | > 100 µM (inactive) | – | 33.7 µM (inactive) | 14.1 µM (inactive) | > 100 µM (inactive) | 27.9 µM (inactive) | – | 42.5 µM (inactive) | 51.3 µM (inactive) | 29.2 µM (inactive) | 40.5 µM (inactive) | 44.7 µM (inactive) | 49.7 µM (inactive) | > 100 µM (inactive) | – | 33.8 µM (inactive) | 56.5 µM (inactive) | > 100 µM (inactive) | – |
| N#CC(C/C=C/c1ccccc1)NNC(=O)c1c(Cl)c(Cl)c(Cl)c(Cl)c1-c1nc2cc(C(=O)c3ccccc3)ccc2[nH]1 (stereo unspecified) | 18.1 µM (inactive) | 5.79 µM (inactive) | 7.57 µM (inactive) | 6.14 µM (inactive) | 6.34 µM (inactive) | 13.5 µM (inactive) | 13.4 µM (inactive) | 17.9 µM (inactive) | – | 16.7 µM (inactive) | 3.92 µM (inactive) | 16.3 µM (inactive) | 10.2 µM (inactive) | 14.8 µM (inactive) | 6.58 µM (inactive) | – | – | 12.9 µM (inactive) | 12 µM (inactive) | 20.7 µM (inactive) |
| CC(C)[C@H]1C(=O)O[B@-](F)(c2ccccc2)/[N+]1=C\N(C)C | > 100 µM (inactive) | > 100 µM (inactive) | > 100 µM (inactive) | > 100 µM (inactive) | > 100 µM (inactive) | > 100 µM (inactive) | > 100 µM (inactive) | > 100 µM (inactive) | > 100 µM (inactive) | > 100 µM (inactive) | > 100 µM (inactive) | > 100 µM (inactive) | > 100 µM (inactive) | > 100 µM (inactive) | > 100 µM (inactive) | > 100 µM (inactive) | – | > 100 µM (inactive) | > 100 µM (inactive) | > 100 µM (inactive) |
| COC(=O)C1C=CCON2CCc3c(n(S(=O)(=O)c4ccccc4)c4ccccc34)C12 (stereo unspecified) | 50.1 µM (inactive) | 32.5 µM (inactive) | 27 µM (inactive) | > 39.2 µM (inactive) | 17.9 µM (inactive) | 33.3 µM (inactive) | 26.9 µM (inactive) | > 90.4 µM (inactive) | 52.6 µM (inactive) | 50.9 µM (inactive) | 59.4 µM (inactive) | > 100 µM (inactive) | 34.4 µM (inactive) | 60 µM (inactive) | 34.1 µM (inactive) | > 49.4 µM (inactive) | – | – | – | – |
